# Source: article PMC4459817, “Vasculotide reduces endothelial permeability and tumor cell extravasation in the absence of binding to or agonistic activation of Tie2” (EMBO Molecular Medicine, 2015)
# B1: recombinant human Ang1 (rhAng1) (ligand, UniProt Q15389 16-498, looked up)
# chain: HIGCSNQRRSPENSGRRYNRIQHGQCAYTFILPEHDGNCRESTTDQYNTNALQRDAPHVEPDFSSQKLQHLEHVMENYTQWLQKLENYIVENMKSEMAQIQQNAVQNHTATMLEIGTSLLSQTAEQTRKLTDVETQVLNQTSRLEIQLLENSLSTYKLEKQLLQQTNEILKIHEKNSLLEHKILEMEGKHKEELDTLKEEKENLQGLVTRQTYIIQELEKQLNRATTNNSVLQKQQLELMDTVHNLVNLCTKEGVLLKGGKREEEKPFRDCADVYQAGFNKSGIYTIYINNMPEPKKVFCNMDVNGGGWTVIQHREDGSLDFQRGWKEYKMGFGNPSGEYWLGNEFIFAITSQRQYMLRIELMDWEGNRAYSQYDRFHIGNEKQNYRLYLKGHTGTAGKQSSLILHGADFSTKDADNDNCMCKCALMLTGGWWFDACGPSNLNGMFYTAGQNHGKLNGIKWHYFKGPSYSLRSTTMMIRPLDF
# notes: angiopoietin-1, human, recombinant; also called angiopoietin-1; source: bought: R&D Systems (named for the Boyden chamber experiments)
# Legend:
# [1] = system: human microvascular ECs of lung blood vessel origin (HMVEC-LBl); assay: modified Boyden chamber, thrombin-stimulated FITC-dextran permeability, HMVEC-LBl; format: cell-based; conditions: VT 10–20 ng/mL, Ang1 200–400 ng/mL, 30 min pretreatment, FITC fluorescence ex/em 490/520 nm, n = 3–5 inserts, unpaired t-test, Fig1A
# Experimental: (§1) ECs were first treated with Vasculotide (VT), PBS (vehicle/negative control), Ang1 (positive control), PEG-Cys (polyethylene glycol backbone), T7c (non-PEGylated CHHHRHSF peptides), or VT in the presence of 100-fold molar excess of T7c. The concentrations used, 10–20 ng/mL VT and 200–400 ng/mL Ang1, are estimated molar equivalents (0.71–1.43 nM). Thirty minutes later, ECs were stimulated with thrombin, 0.1% BSA (vehicle/negative control), or EDTA (positive control). Another 30mins later, the amount of FITC-dextran diffusion into the lower chambers (A, D) provides a measure of endothelial permeability. CMTPX-labeled tumor cells (TCs) were then dispensed into inserts, and the amount of TC fluorescence emitting from the underside of insert membranes after 20 h (B–C) or 28 h (E) reflects the efficiency of trans-endothelial TC migration. […] Three experiments (twice with HMVEC-LBl and once with HMVEC-DBl) were run with n = 3–5 inserts (independent biological replicates) per group and analyzed by two-sampled unpaired t-tests. […]
# (§2) Endothelial cells (ECs) were grown on cell culture inserts with uncoated 8-μm-pore PET filter membranes to 100% confluency. […] After 30 min of thrombin stimulation or 4–6 h of TC-CM stimulation, FITC fluorescence (ex/em = 490/520 nm) was measured from a 50 μl sample of the lower chamber media. […]
# [2] = system: CMPTX-labeled tumor cells across HMVEC-LBl; assay: modified Boyden chamber, trans-endothelial tumor cell migration, HMVEC-LBl; format: cell-based, human; conditions: 20 h, Fig1B, C
# Experimental: as §1, §2
Molecule,transendothelial permeability of FITC-dextran [1],thrombin-stimulated migration of CMTPX-labeled TCs [2]
"CHHHRHSF [Vasculotide, 4-armed maleimide-functionalized polyethylene glycol (PEG) backbone to link together four cysteine-capped T7 peptides, that is, CHHHRHSF]",counteract thrombin-stimulated increases in transendothelial permeability of FITC-dextran (P < 0.05,trends of reducing thrombin-stimulated migration
B1,counteract thrombin induction of trans-endothelium macromolecular permeability,counteract thrombin induction of trans-endothelium macromolecular permeability and tumor cell migration
